Patent US7572765B2, “Conformationally constrained parathyroid hormone (PTH) analogs” (The General Hospital Corporation, priority 2001, dated 2009)
Square brackets hold non-standard residues; d marks the D form. Peptide text beside a SMILES is read from it. hArg = N=C(N)NCCCC[C@H](N)C(=O)O; Aib = CC(C)(N)C(=O)O

How the values were obtained:
[1] = biological target: T1, wild-type human P1R (hP1R-WT) (Homo sapiens, UniProt Q03431); test: cAMP stimulation in COS-7 cells expressing hP1R-WT; format: cell-based; settings: for EC50 / cAMP EMax(obs.): hP1R-WT; for cAMP EMax(obs.): basal 10.3 ± 1.1, asterisk = plateau not attained
T1 construct: expressed in transfected cells; host or cells: COS-7 (transient, FuGENE 6)
T1 sequence (Q03431 27-593): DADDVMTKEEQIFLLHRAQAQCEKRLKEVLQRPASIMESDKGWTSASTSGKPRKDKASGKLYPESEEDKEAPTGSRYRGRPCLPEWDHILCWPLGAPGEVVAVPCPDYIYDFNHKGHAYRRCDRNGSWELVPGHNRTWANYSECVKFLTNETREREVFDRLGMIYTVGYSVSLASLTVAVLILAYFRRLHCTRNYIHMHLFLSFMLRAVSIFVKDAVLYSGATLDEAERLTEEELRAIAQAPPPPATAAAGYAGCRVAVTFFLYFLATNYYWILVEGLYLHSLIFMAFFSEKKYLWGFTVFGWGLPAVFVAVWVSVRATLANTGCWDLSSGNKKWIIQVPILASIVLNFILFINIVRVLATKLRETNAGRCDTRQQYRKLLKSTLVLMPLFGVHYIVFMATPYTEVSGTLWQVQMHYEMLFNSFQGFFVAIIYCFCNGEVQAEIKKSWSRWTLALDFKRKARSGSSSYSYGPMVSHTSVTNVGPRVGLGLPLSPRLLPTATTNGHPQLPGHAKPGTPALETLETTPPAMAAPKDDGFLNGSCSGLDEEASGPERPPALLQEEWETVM
Protocol: (§1) Cell Culture. The cell line HKRK-B28 (Takasu, H., et al., J. Bone Miner. Res. 14:11-20 (1999)) was derived from the porcine kidney cell line, LLC-PK1 by stable transfection with plasmid DNA encoding the human P1R and expresses ˜280,000 receptors per cell. These cells, as well as COS-7 cells and SaOS-2-B10 cells, were cultured at […] in T-75 flasks ([…]) in Dulbecco's modified Eagle's medium (DMEM) supplemented with fetal bovine serum (10%), penicillin G (20 units/ml), streptomycin sulfate (20 μg/ml) and amphotericin B (0.05 μg/ml) in a humidified atmosphere containing 5% CO2. Stock solutions of EGTA/trypsin and antibiotics were from GIBCO; fetal bovine serum was from Hyclone Laboratories (Logan, Utah). COS-7 cells sub-cultured in 24-well plates were transfected with plasmid DNA (200 ng per well) encoding the wild-type human P1R or truncated human P1R deleted for residues (24-181) (Shimizu, M., et al., J. Biol. Chem. 275:21836-21843 (2000)) that was purified by cesium chloride/ethidium bromide density gradient centrifugation, and FuGENE 6 transfection reagent (Roche Indianapolis Ind.) according to the manufacturer's recommended procedure. All cells, in 24-well plates, were treated with fresh media and shifted to 33° C. for 12 to 24 h prior to assay.
(§2) cAMP Stimulation. Stimulation of cells with peptide analogs was performed in 24-well plates. Cells were rinsed with 0.5 mL of binding buffer (50 mM Tris-HCI, […], 5 mM KCl, 2 mM CaCl2, 5% heat-inactivated horse serum, 0.5% fetal bovine serum, adjusted to pH 7.5 with HCl) and treated with 200 μL of cAMP assay buffer (Delbecco's modified Eagle's medium containing 2 mM 3-isobutyl-1-methylxanthine, 1 mg/mL bovine serum albumin, 35 mM Hepes-NaOH, pH 7.4) and 100 μL of binding buffer containing varying amounts of peptide analog (final volume=300 μL). The medium was removed after incubation for 30 to 60 minutes at room temperature, and the cells were frozen on dry ice, lysed with 0.5 mL 50 mM HCl, and refrozen ([…]). The cAMP content of the diluted lysate was determined by radioimmunoassay. The EC50 response values were calculated using nonlinear regression (see below).
(§3) Data Calculation. Calculations were performed using Microsoft® Excel. Nonlinear regression analyses of binding and cAMP dose-response data were performed using the four-parameter equation: yp=Min+[(Max−Min)/(1+(IC50/x)^slope)]. The Excel Solver function was utilized for parameter optimization, as described previously (Carter, P. H., et al., Endocrinology 140: 4972-4981 (1999); Bowen, W. P., and Jerman, J. C., Trends in Pharmacol. Sci. 16: 413-417 (1995)). Differences between paired data sets were statistically evaluated using a one-tailed Student's t-test, assuming unequal variances for the two sets.

[2] = biological target: T2, P1R-delNt, truncated human P1R deleted for residues (24-181) (Homo sapiens, UniProt Q03431); test: cAMP stimulation in COS-7 cells expressing hP1R-delNt; format: cell-based; settings: for EC50 / cAMP EMax(obs.): hP1R-delNT; for cAMP EMax(obs.): basal 9.5 ± 1.3, asterisk = plateau not attained
T2 construct: expressed in transfected cells; host or cells: COS-7 (transient, FuGENE 6)
T2 sequence (Q03431 with tags, fused parts or gaps limits assumed): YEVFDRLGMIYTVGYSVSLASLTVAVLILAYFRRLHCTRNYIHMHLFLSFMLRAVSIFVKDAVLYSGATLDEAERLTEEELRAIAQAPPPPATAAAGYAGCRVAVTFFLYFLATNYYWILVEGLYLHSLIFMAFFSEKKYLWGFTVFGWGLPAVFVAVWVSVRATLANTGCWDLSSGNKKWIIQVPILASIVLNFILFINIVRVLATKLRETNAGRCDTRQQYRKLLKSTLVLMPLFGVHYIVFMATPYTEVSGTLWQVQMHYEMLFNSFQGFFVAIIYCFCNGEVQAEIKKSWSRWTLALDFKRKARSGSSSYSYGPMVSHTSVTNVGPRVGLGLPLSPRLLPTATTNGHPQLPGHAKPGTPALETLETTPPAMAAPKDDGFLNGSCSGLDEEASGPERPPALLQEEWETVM
Protocol: as §1, §2, §3
The possibility that the activity-enhancing effects of the Aib substitutions at positions 1 and 3 were mediated through the juxtamembrane (J) region of the receptor was investigated in COS-7 cells transiently transfected with P1R-delNt. P1R-delNt was a truncated P1R that lacked most of the amino-terminal extracellular domain.

Molecule | cAMP EMax ([1]; P1R-WT) | EC50 [1] | cAMP EMax(obs.) [1] | cAMP potency, fold weaker on P1R-delNt than P1R-WT [2] | EC50 [2] | cAMP EMax(obs.) [2] | cAMP EMax ([2]; P1R-delNt) | cAMP potency, fold more potent than [M]PTH(1-14) ([2]; P1R-delNt)
CCCC[C@H](NC(=O)[C@H](CCCNC(=N)N)NC(=O)[C@H](CCC(=O)O)NC(=O)[C@@H](NC(=O)[C@H](CO)NC(=O)[C@H](C)NC(=O)[C@H](CC(C)C)NC(=O)[C@H](Cc1c[nH]cn1)NC(=O)[C@H](CCCCN)NC(=O)CNC(=O)[C@H](CC(C)C)NC(=O)[C@H](CC(N)=O)NC(=O)[C@H](Cc1c[nH]cn1)NC(=O)[C@H](CCCC)NC(=O)[C@H](CC(C)C)NC(=O)[C@H](CCC(N)=O)NC(=O)[C@@H](NC(=O)[C@H](CCC(=O)O)NC(=O)[C@H](CO)NC(=O)[C@@H](NC(=O)[C@H](C)N)C(C)C)[C@@H](C)CC)C(C)C)C(=O)N[C@@H](CCC(N)=O)C(=O)N[C@@H](Cc1c[nH]c2ccccc12)C(=O)N[C@@H](CC(C)C)C(=O)N[C@@H](CCCNC(=N)N)C(=O)N[C@@H](CCCCN)C(=O)N[C@@H](CCCCN)C(=O)N[C@@H](CC(C)C)C(=O)N[C@@H](CCC(N)=O)C(=O)N[C@@H](CC(=O)O)C(=O)N[C@H](C(=O)N[C@@H](Cc1c[nH]cn1)C(=O)N[C@@H](CC(N)=O)C(=O)N[C@@H](Cc1ccc(O)cc1)C(N)=O)C(C)C [PTH(1-34), [Nle^8,21, Tyr^34]PTH(1-34)amide, reference compound] | 240±50 picomole/well | 1.4 ± 0.7 nM | 240 ± 50 pmole/well | ~500 fold | 680 ± 110 nM | 220 ± 30 pmole/well |  | 
CC[C@H](C)[C@H](NC(=O)[C@H](CCC(=O)O)NC(=O)C(C)(C)NC(=O)[C@@H](NC(=O)C(C)(C)N)C(C)C)C(=O)N[C@@H](CCC(N)=O)C(=O)N[C@@H](CC(C)C)C(=O)N[C@@H](CCSC)C(=O)N[C@@H](Cc1c[nH]cn1)C(=O)N[C@@H](CCC(N)=O)C(N)=O [[Aib^1,3,M]PTH(1-10), [Aib^1,3,Gln^10]PTH(1-10)] (H-[Aib]V[Aib]EIQLMHQ-NH2) |  |  | 120 ± 10 pmole/well |  |  | 84 ± 4 pmole/well |  | 
H-AVSEIQLMHNLGKH-NH2 [PTH(1-14), reference compound] |  |  | 140 ± 30 pmole/well |  |  | 110 ± 10 pmole/well |  | 

The remaining lines, values ahead:

cAMP EMax ([1]; P1R-WT) | EC50 [1] | cAMP EMax(obs.) [1] | cAMP potency, fold weaker on P1R-delNt than P1R-WT [2] | EC50 [2] | cAMP EMax(obs.) [2] | cAMP EMax ([2]; P1R-delNt) | cAMP potency, fold more potent than [M]PTH(1-14) ([2]; P1R-delNt) | Molecule
 |  | 190 ± 40 pmole/well |  |  | 220 ± 20 pmole/well |  |  | CC[C@H](C)[C@H](NC(=O)[C@H](CCC(=O)O)NC(=O)C(C)(C)NC(=O)[C@@H](NC(=O)C(C)(C)N)C(C)C)C(=O)N[C@@H](CCC(N)=O)C(=O)N[C@@H](CC(C)C)C(=O)N[C@@H](CCSC)C(=O)N[C@@H](Cc1c[nH]cn1)C(=O)N[C@@H](CCC(N)=O)C(=O)N[C@@H](CCCCNC(=N)N)C(N)=O [[Aib^1,3,M]PTH(1-11), AibValAibGluIleGlnLeuMetHisGlnHar] (H-[Aib]V[Aib]EIQLMHQ[hArg]-NH2)
 |  | 240 ± 50 pmole/well |  |  | 220 ± 20 pmole/well |  |  | CC[C@H](C)[C@H](NC(=O)[C@H](CCC(=O)O)NC(=O)[C@H](C)NC(=O)[C@@H](NC(=O)[C@H](C)N)C(C)C)C(=O)N[C@@H](CCC(N)=O)C(=O)N[C@@H](CC(C)C)C(=O)N[C@@H](CCSC)C(=O)N[C@@H](Cc1c[nH]cn1)C(=O)N[C@@H](CCC(N)=O)C(=O)N[C@@H](CCCCNC(=N)N)C(=O)N[C@@H](C)C(=O)N[C@@H](CCCCN)C(=O)N[C@@H](Cc1c[nH]c2ccccc12)C(N)=O [[M]PTH(1-14), [Ala^3,12,Gln^10,Har^11,Trp^14]PTH(1-14)amide, reference compound] (H-AVAEIQLMHQ[hArg]AKW-NH2)
 | 1.2 ± 0.6 nM | 240 ± 40 pmole/well |  | 0.73 ± 0.16 nM | 250 ± 20 pmole/well | 250±20 picomole/well | 55 fold | CC[C@H](C)[C@H](NC(=O)[C@H](CCC(=O)O)NC(=O)C(C)(C)NC(=O)[C@@H](NC(=O)C(C)(C)N)C(C)C)C(=O)N[C@@H](CCC(N)=O)C(=O)N[C@@H](CC(C)C)C(=O)N[C@@H](CCSC)C(=O)N[C@@H](Cc1c[nH]cn1)C(=O)N[C@@H](CCC(N)=O)C(=O)N[C@@H](CCCCNC(=N)N)C(=O)N[C@@H](C)C(=O)N[C@@H](CCCCN)C(=O)N[C@@H](Cc1c[nH]c2ccccc12)C(N)=O [[Aib^1,3,M]PTH(1-14), AibValAibGluIleGlnLeuMetHisGlnHarAlaLysTrp] (H-[Aib]V[Aib]EIQLMHQ[hArg]AKW-NH2)
